According to ChEMBL document CHEMBL1687705, “Design, Synthesis, and in Vitro Evaluation of Novel Aminomethyl-pyridines as DPP-4 Inhibitors” (ACS Med Chem Lett, 2010):

What was measured:
HeLa [1] = assay: Cytotoxicity against human HeLa cells at 10 uM; assay type: functional, cell-based
Homo sapiens = species on record: Homo sapiens; assay: Selectivity ratio of IC50 for human recombinant DPP8 to IC50 for human recombinant DPP4
Dipeptidyl peptidase 4 = Dipeptidyl peptidase 4 (Homo sapiens, UniProt P27487); assay: Inhibition of human recombinant DPP4 assessed as Gly-Pro-pNA chromogenic substrate cleavage for 16 mins preincubated with compound for 10 mins before addition of chromogenic substrate
Dipeptidyl peptidase 4, sequence (P27487 whole entry): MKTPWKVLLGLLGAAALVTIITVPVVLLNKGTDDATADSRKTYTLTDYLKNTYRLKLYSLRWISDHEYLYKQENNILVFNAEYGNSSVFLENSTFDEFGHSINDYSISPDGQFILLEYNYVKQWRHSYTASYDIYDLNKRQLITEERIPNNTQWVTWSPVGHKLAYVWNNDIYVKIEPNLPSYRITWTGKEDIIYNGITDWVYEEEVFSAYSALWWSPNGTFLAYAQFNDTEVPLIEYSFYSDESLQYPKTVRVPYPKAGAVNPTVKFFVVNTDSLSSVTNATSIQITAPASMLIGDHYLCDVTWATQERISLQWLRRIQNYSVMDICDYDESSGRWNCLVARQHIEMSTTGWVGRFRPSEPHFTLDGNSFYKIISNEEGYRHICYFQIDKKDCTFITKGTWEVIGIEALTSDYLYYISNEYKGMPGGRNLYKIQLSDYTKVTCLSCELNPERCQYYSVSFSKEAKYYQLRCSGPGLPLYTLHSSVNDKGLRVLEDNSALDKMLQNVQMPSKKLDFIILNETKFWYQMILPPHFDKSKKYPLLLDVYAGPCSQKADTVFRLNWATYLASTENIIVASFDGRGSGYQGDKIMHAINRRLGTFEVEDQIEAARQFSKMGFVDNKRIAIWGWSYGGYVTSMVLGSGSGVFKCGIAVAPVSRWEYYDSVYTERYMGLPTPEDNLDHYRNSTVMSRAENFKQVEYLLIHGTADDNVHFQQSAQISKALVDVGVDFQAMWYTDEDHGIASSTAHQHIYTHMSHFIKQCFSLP

HeLa [2] = assay: Cytotoxicity against human HeLa cells; assay type: functional; details: read-out: LC50 (the source's name)
Dipeptidyl peptidase 8 = Dipeptidyl peptidase 8 (Homo sapiens, UniProt Q6V1X1); assay: Inhibition of human recombinant DPP8 assessed as Gly-Pro-pNA chromogenic substrate cleavage for 16 mins preincubated with compound for 10 mins before addition of chromogenic substrate
Dipeptidyl peptidase 8, sequence (Q6V1X1 whole entry): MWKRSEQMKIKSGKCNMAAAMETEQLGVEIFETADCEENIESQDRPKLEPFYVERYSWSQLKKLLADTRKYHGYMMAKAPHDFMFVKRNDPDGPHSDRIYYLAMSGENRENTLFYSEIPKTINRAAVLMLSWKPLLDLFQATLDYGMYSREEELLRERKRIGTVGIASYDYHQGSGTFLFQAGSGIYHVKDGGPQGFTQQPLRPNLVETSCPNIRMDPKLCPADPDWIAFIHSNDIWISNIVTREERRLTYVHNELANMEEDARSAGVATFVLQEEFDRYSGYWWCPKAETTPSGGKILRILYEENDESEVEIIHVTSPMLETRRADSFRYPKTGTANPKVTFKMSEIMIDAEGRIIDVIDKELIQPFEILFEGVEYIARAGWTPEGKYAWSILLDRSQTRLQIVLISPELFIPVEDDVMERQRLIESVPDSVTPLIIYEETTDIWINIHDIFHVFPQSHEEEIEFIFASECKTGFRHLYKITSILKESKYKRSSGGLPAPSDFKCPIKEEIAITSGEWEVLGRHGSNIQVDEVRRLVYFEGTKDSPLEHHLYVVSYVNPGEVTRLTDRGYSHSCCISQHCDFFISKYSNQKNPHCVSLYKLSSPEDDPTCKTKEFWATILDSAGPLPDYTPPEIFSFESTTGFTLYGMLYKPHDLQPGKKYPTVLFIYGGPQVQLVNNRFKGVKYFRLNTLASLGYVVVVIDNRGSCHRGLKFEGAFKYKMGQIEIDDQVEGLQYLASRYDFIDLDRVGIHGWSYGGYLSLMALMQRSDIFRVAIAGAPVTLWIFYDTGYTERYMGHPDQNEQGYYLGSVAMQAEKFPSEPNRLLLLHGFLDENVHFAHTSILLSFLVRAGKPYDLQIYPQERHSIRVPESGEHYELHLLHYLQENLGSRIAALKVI

Structure (SMILES) | IC50 (Dipeptidyl peptidase 4) | Activity (HeLa [1]) | CC50 (HeLa [2]) | further results
Cc1nc(C(=O)NCC#N)cc(-c2ccc(Cl)cc2Cl)c1CN | – | Not toxic | > 10 µM | –
Cc1nc(C(=O)O)cc(-c2ccc(F)cc2)c1CN | < 50 µM | – | – | –
Cc1nc(C(=O)N2CCCC2)cc(-c2ccc(F)cc2)c1CN | – | – | > 10 µM | Ki (Dipeptidyl peptidase 8): 137 µM
Cc1nc(C(=O)NC2CC2)cc(-c2ccc(F)cc2F)c1CN | – | – | > 10 µM | Ki (Dipeptidyl peptidase 8): 182 µM
Cc1nc(C(=O)N2CCOCC2)cc(-c2ccc(F)cc2)c1CN | < 50 µM | – | – | –
Cc1nc(CN)cc(-c2ccc(Cl)cc2)c1C(N)=O | > 50 µM | – | – | –
Cc1cc(NC(=O)c2cc(-c3ccc(F)cc3F)c(CN)c(C)n2)no1 | – | – | > 10 µM | Ki (Dipeptidyl peptidase 8): 179 µM
CNC(=O)c1cc(-c2ccc(Cl)cc2Cl)c(CN)c(C)n1 | – | Not toxic | > 10 µM | –
Cc1nc(C(N)=O)cc(-c2ccc(Cl)cc2Cl)c1CN | – | Not toxic | > 10 µM | –
Cc1nc(CN)cc(-c2ccccc2F)c1C(N)=O | > 50 µM | – | – | –
Cc1nc(C(=O)N2CCCC2)cc(-c2ccc(Cl)cc2Cl)c1CN | – | Not toxic | > 10 µM | –
Cc1nc(C(=O)NC2CC2)cc(-c2ccc(F)cc2)c1CN | – | – | > 10 µM | Ki (Dipeptidyl peptidase 8): 106 µM

Now from value to compound, other results behind:

IC50 (Dipeptidyl peptidase 4) | Structure (SMILES) | Activity (HeLa [1]) | CC50 (HeLa [2]) | further results
< 50 µM | Cc1nc(C(=O)NCC(N)=O)cc(-c2ccc(Cl)cc2Cl)c1CN | Not toxic | – | Ratio IC50 (Homo sapiens): 6600
< 50 µM | Cc1nc(C(=O)NC2CC2)cc(-c2ccccc2F)c1CN | – | – | –
< 50 µM | Cc1nc(C(=O)NC2CC2)cc(-c2ccc(Cl)cc2Cl)c1CN | Not toxic | – | –
< 50 µM | CNC(=O)c1cc(-c2ccc(Cl)cc2)c(CN)c(C)n1 | – | – | –
< 50 µM | Cc1nc(C(=O)N2CCOCC2)cc(-c2ccc(F)cc2F)c1CN | – | – | –
< 50 µM | Cc1nc(C(=O)N2CCCC2)cc(-c2ccccc2F)c1CN | – | – | –
< 50 µM | Cc1nc(C(N)=O)cc(-c2ccccc2F)c1CN | – | – | –
< 50 µM | Cc1nc(C(=O)N2CCCC2)cc(-c2ccc(F)cc2F)c1CN | – | – | –
< 50 µM | Cc1nc(C(=O)N2CCOCC2)cc(-c2ccc(Cl)cc2Cl)c1CN | Not toxic | – | –
< 50 µM | COC(=O)CNC(=O)c1cc(-c2ccc(F)cc2F)c(CN)c(C)n1 | – | – | –
< 50 µM | Cc1nc(C(=O)O)cc(-c2ccc(F)cc2F)c1CN | – | – | –
